{
  "source": "patent US11058619B2",
  "about": "“Carboxylated polyphenol derivatives and their cosmetic use” (L'ORÉAL, priority 2016, dated 2021)",
  "key": {"normal human melanocytes": {"test_system": "normal human melanocytes", "assay": "Depigmenting activity: melanin produced by normal human melanocytes in vitro", "type": "cell-based", "protocol": "The measurement of the depigmenting activity (reduction in the production of melanin) of compounds of formula (I) was performed by assaying the melanin produced by normal human melanocytes in vitro as follows.\nFirst of all, normal human melanocytes are cultured and dispensed into 384 wells. After 24 hours, the culture medium was replaced with a medium containing compounds of formula (I) to be evaluated. The cells were incubated for 72 hours before measurement of the final optical density, which measures the amount of melanin produced by the melanocytes. A […] is performed using a wide concentration range of the compounds evaluated. Thus, by making the concentrations and the measurements of melanin correspond, it is possible to determine an IC50 in μM: concentration at which 50% decrease in melanin synthesis is achieved."}, "HAS3 marker": {"test_system": "HAS3 marker", "assay": "Gene marker expression (HAS3) in human epidermal keratinocytes by RT-qPCR", "type": "cell-based", "protocol": "Human epidermal keratinocytes were seeded in 48 well-culture plate and cultured for 48 hours at 37° C. and 5% of CO2 in culture medium with renewal of culture medium after the first 24 hours. At the end of incubation, culture medium was replaced by assay medium containing or not (control) raw material and cells were incubated for additional 24 hours. All experimental conditions were performed in n=3. At the end of treatment, cells were washed twice in PBS (w/o CaCl2, w/o MgCl2) and RNA extraction was performed using MagMAX™-96 Total RNA Isolation Kit (Ambion cat n° AM8130) according to manufacturer recommendation. RNA quantification and quality control were performed using Labchip GX (Perkin Elmer). Relative expression of selected markers was measured by two steps RT-qPCR. In a first step, a reverse transcription was performed using the Quantitect® Reverse transcription kit (QIAGEN) and according to manufacturer recommendation. Then, PCR experiments were performed using a LightCycler® 480 Real-Time PCR System measuring SYBR®Green incorporation (Roche)."}},
  "note": "“And” between values parts separate entries of the source, which are not always exact repeats. Equal values may be shown once.",
  "data": [
    {"molecule": "O=C(O)c1c(O)cc(/C=C/c2ccc(O)cc2)cc1O", "note": "[Compound W]", "values": [
      {"measurement": "IC50", "setting": "normal human melanocytes; Melanocyte, normal human melanocytes, 72 hours incubation, optical density, read-out: IC50, inhibiting effect on the production of melanin", "value": 25, "unit": "µM"},
      {"measurement": "Mean percentage Depigmentation", "setting": "normal human melanocytes; concentration 0.000003125 (unit not given)", "value": 15.6, "unit": "%"},
      {"measurement": "Mean percentage Depigmentation", "setting": "normal human melanocytes; concentration 0.00000625 (unit not given)", "value": 22.8, "unit": "%"},
      {"measurement": "Mean percentage Depigmentation", "setting": "normal human melanocytes; concentration 0.0000125 (unit not given)", "value": 32.8, "unit": "%"},
      {"measurement": "Mean percentage Depigmentation", "setting": "normal human melanocytes; concentration 0.000025 (unit not given)", "value": 43.0, "unit": "%"},
      {"measurement": "Mean percentage Depigmentation", "setting": "normal human melanocytes; concentration 0.00005 (unit not given)", "value": 76.7, "unit": "%"},
      {"measurement": "Mean percentage Depigmentation", "setting": "normal human melanocytes; concentration 0.0001 (unit not given)", "value": 99.7, "unit": "%"},
      {"measurement": "Mean percentage Depigmentation", "setting": "normal human melanocytes; concentration 0.0002 (unit not given)", "value": 125.6, "unit": "%"},
      {"measurement": "Mean percentage Depigmentation", "setting": "normal human melanocytes; concentration 1.5625*10^−6 (unit not given)", "value": 9.7, "unit": "%"},
      {"measurement": "Mean percentage Depigmentation", "setting": "normal human melanocytes; concentration 3.90625*10^−7 (unit not given)", "value": "−0.9", "unit": "%"},
      {"measurement": "Mean percentage Depigmentation", "setting": "normal human melanocytes; concentration 7.8125*10^−7 (unit not given)", "value": 5.5, "unit": "%"},
      {"measurement": "depigmenting effect", "setting": "normal human melanocytes; normal human melanocytes", "value": "showed a depigmenting effect"},
      {"measurement": "cytotoxicity", "setting": "normal human melanocytes; normal human melanocytes, in the concentration range tested", "value": "without cytotoxicity"},
      {"measurement": "Relative expression (UA) of HAS3", "setting": "HAS3 marker; 30 μM, 24 hours, human epidermal keratinocytes, individual replicates (n=3)", "value": "3.44E−03 UA and 3.32E−03 UA and 3.61E−03 UA"},
      {"measurement": "Fold change Mean of HAS3 expression vs control", "setting": "HAS3 marker; 30 μM, 24 hours, mean of n=3", "value": 2.45},
      {"measurement": "Fold change (Nb) of HAS3 expression", "setting": "HAS3 marker; 30 μM, 24 hours, vs control, individual replicates (n=3)", "value": "2.432 Nb and 2.35 Nb and 2.553 Nb"},
      {"measurement": "cytotoxicity", "setting": "HAS3 marker; human epidermal keratinocytes, at 30 μM", "value": "without cytotoxicity"}
    ]}
  ]
}
